How the values were obtained:
[1] = cited from earlier work
[2] = tested on: HCV in 293EBNA-Sip-L cells; test: HCV replication in HCV-infected 293EBNA-Sip-L cell line (intracellular HCV-RNA, nested RT-PCR); type: cell-based, hepatitis C virus; conditions: day 2 to day 7 after infection, RT-PCR sensitivity <10^2 copy per 10^5 cells, untreated cells 2.31×10^5 per 10^5 cells
Protocol: To verify the ability of sodium stibogluconate to inhibit HCV replication, a 293EBNA-Sip-L cell line was used. This cell line, permissive for HCV infection and replication, had been established by expressing a cellular factor, Sip-L, in 293EBNA cells (Yeh et al., J. Virol. 75 (2001) 11017–11024). This cell line was maintained in a Dulbecco's modified Eagle's medium containing 10% fetal bovine serum, 250 μg/ml G418, and 150 μg/ml hygromycin B. The cells were infected with HCV. Briefly, cells in a 60-mm-diameter petri dish were incubated with a medium containing 5 μl of HCV-positive serum (10^7 copies of HCV-RNA/ml) for 12 hr. The cells were then incubated in a fresh medium without the serum.
At the second day after the HCV infection, 293EBNA-Sip-L cells were incubated with media containing 0, 1, 10, and 100 μg/ml of sodium stibogluconate, respectively. At the seventh day, the cells were harvested to determine the intracellular level of HCV-RNA. The cells were trypsinized and washed two times with a fresh medium by centrifugation. The supernatant of the second wash (as a contamination control) and the washed cells were collected in pairs for RNA extraction and nested RT-PCR. A digoxigenin-labeled probe was used for the subsequent Southern blot analysis. The sequences of the primers, the method for generating the probe, and the procedure for RT-PCR were described in Yeh et al., J. Virol. 75 (2001) 11017–11024. An amplified HCV fragment was cloned into pCR2.1-TOPO (Invitrogen, Carlsbad, Calif.) to generate a plasmid, pTOPO-HCV5n, which served as a positive control in Southern blot analysis. As internal controls, the levels of 18s and 28s RNAs were measured.

hepatitis C virus (HCV) = test: HCV replication (HCV-RNA level by RT-PCR) in human liver slices from hepatitis C patients; type: cell-based; conditions: for suppression of HCV replication in liver slices: 3 days
Protocol: Liver slices were prepared from liver tissues of the patients. To obtain the livers tissues, biopsy was performed using Bard Biopty-Cut biopsy needles (C. R. Bard, Inc. Covington, Ga.) with a diameter of 1.2 mm (18 gauge). Two equal-sized slices, 1 mm in thickness, were separated from each tissue. The remaining portion (main portion) of each tissue was subjected to pathological examination. The liver slices were incubated in a 24-well culture plate containing 2 ml of minimal essential medium-20% fetal bovine serum and fed with fresh medium daily.
To evaluate whether it suppresses the authentic HCV replication in liver slices, the liver slices from patients S10-1 to S10-6 and S00-1 to S00-6 were incubated with 0, 10, and 100 μg/ml of sodium stibogluconate (Wuhan Shengmao Corp., Hubei, China), respectively, 24 hrs after the slices had been cultured in vitro. The slices from patient S10-5 served as a negative control. Three days later (i.e., 96 hr after the slices were cultured), the level of HCV RNA in each slice was measured.
To detect the HCV-RNA level, one step RT-PCR (not nested) was performed in the manner described in Yeh et al., J. Gen. Virol. 78 (1997) 2761–2770. As a control, β-actin mRNA was measured simultaneously. 20 PCR cycles were performed, in which the amounts of the PCR products had not yet reached to a plateau. The primers used were described in Yeh et al., Oncogene 19 (2000) 5213–5220. […] Methods 65 (1997) 219–226. HCV genotypes were determined using Inno-Lipa HCV II kit (Innogenetics, Zwijndrecht, Belgium).
The responsiveness of patients to Interferon-alpha, a drug currently being used to treat hepatitis C, was evaluated using liver slices. Liver slices prepared from patients INF-1 to 6 were incubated with 5000 U/ml of interferon-alpha2b (Schering-Plough Corp., Kenilworth, N.J. Slices from patient IFN-6, who was infected by hepatitis B virus, were used as negative controls.
The slices form patient […] served as negative controls.

HCV replicon = test: HCV subgenomic RNA replicon system (Ava5); type: cell-based, hepatitis C virus
[3] = tested on: hepatocytes in human liver slices; test: Viability of hepatocytes in human liver slices (intracellular AST); type: cell-based; conditions: 96 hrs after the culture; Group V liver slices; without drug 57%; no significant difference between samples
Protocol: To determine whether sodium stibogluconate or interferon-alpha 2b protects hepatocytes in human liver slices, the viability of hepatocytes in human liver slices incubated with the drugs was examined. As HCV replication causes the death of hepatocytes, intracellular aspartate aminotransferase (AST) leaks out. The intracellular level of AST therefore positively correlates with the cell viability.
Liver slices prepared from the patients in Group V were treated with sodium stibogluconate or interferon-alpha 2b in the manner described above. The AST activity in the medium was determined using a standard technique 48, 72, and 96 hrs after the slices had been cultured in vitro. The AST activities in a fresh medium and in the liver slices 96 hrs after incubation were also measured. For this purpose, the slices were homogenized using a mini-homogenizer (Pellet Pestles, Kimble Deltaware, Vineland, N.J). The percentages of AST leaked out to the medium and remained in the liver slices were calculated accordingly.

hepatitis C = conditions: cited from earlier work

Row | Compound | estimated blood concentration immediately after injection ([1]; daily dose of 20 mg/kg as used in treating kala-azar) | blood concentration needed for treating kala-azar ([1]; in vivo) [µg/mL] | intracellular HCV-RNA ([2]; 1 μg/ml) | intracellular HCV-RNA ([2]; 10 μg/ml) | intracellular HCV-RNA ([2]; 100 μg/ml) | suppression of HCV replication in liver slices (hepatitis C virus (HCV); 10 μg/ml, slices from patient S10-3) | suppression of HCV replication in liver slices (hepatitis C virus (HCV); 10 μg/ml, slices from patients S10-1, S10-2, S10-4 and S10-6) | suppression of HCV replication in liver slices (hepatitis C virus (HCV); 100 μg/ml, slices from patients S00-1, S00-2, S00-3 and S00-5) | suppression of HCV replication in liver slices (hepatitis C virus (HCV); 100 μg/ml, slices from patients S00-4 and S00-6) | suppression of replication of an HCV replicon (HCV replicon) | intracellular AST level [3] [%] | hepatitis C patients responsive to the treatment (hepatitis C) | suppression of HCV-RNA levels in liver slices (hepatitis C virus (HCV); 5000 U/ml, slices from patient IFN-2) | suppression of HCV-RNA levels in liver slices (hepatitis C virus (HCV); 5000 U/ml, slices from patient IFN-5) | suppression of HCV-RNA levels in liver slices (hepatitis C virus (HCV); 5000 U/ml, slices from patients IFN-1, 3 and 4) | suppression of HCV-RNA levels in liver slices (hepatitis C virus (HCV); interferon heated to 90° C. for 10 min (inactivated) before incubation, slices from patients iIF-1 to 6)
1 | O.O.O.O.O.O.O.O.O.O=C([O-])[C@@H]1[O][Sb]2([O-])([O][Sb]34([OH])[O][C@H]([C@H](O)CO)[C@H]([O]3)[C@H](C(=O)[O-])[O]4)[O][C@H]([C@H](O)CO)[C@@H]1[O]2.[Na+].[Na+].[Na+] [sodium stibogluconate] | about 400 μg/ml | 400 | none was detected | none was detected | none was detected | not | partially suppressed | almost completely suppressed | not | capable of suppressing | – | – | – | – | – | –
2 | interferon-alpha 2b | – | – | – | – | – | – | – | – | – | – | 83 | about 50% | no suppression | Partial suppression | suppressed to undetectable levels | No suppression
